Assay results taken from patent publication US7671055B2, “Insecticidal 3-(dihaloalkenyl) phenyl derivatives” (FMC Corporation, priority 2004, dated 2010).

Test system: tobacco budworm (Heliothis virescens [Fabricius])
Assay: surface-treated diet test against tobacco budworm
Assay type: in vivo
Settings: 0.25 millimolar on surface of diet; second instar larvae; five-day exposure; inhibition of insect weight relative to untreated controls
Method: Candidate insecticides were evaluated for activity against the tobacco budworm (Heliothis virescens [Fabricius]) in a surface-treated diet test.
In this test one mL of molten (65-70° C.) wheat germ-based artificial diet was pipetted into each well of a four by six (24 well) multi-well plate (ID#430345-15—[…].×17.6 mm deep; Corning Costar Corp., One Alewife Center, Cambridge, Mass. 02140). The diet was allowed to cool to ambient temperature before treatment with candidate insecticide.
For a determination of insecticidal activity, solutions of the candidate insecticides were prepared for testing using a Packard 204DT Multiprobe® Robotic System (Packard Instrument Company, 800 Research Parkway, Meriden, Conn. 06450), in which the robot first diluted a standard 50 millimolar DMSO solution of candidate insecticide with a 1:1 water/acetone solution (V/V) in a ratio of 1:7 stock solution to water/acetone. The robot subsequently pipetted 40 microliters of the so-prepared solution onto the surface of the diet in each of three wells in the 24 multi-well plate. The process was repeated with solutions of seven other candidate insecticides. […]
After the five-day exposure period insecticidal activity for each rate of application of candidate insecticide was assessed as percent inhibition of insect weight relative to the weight of insects from untreated controls. […]

Structure (SMILES) | Percent Growth Inhibition
FC(F)(F)c1ccc(N2CCN(c3cc(OCC=C(Cl)Cl)cc(Cl)c3Br)CC2)nc1 [Compound 19, 5-(3,3-dichloroprop-2-enyloxy)-2-bromo-3-chloro-1-{4-[5-(trifluoromethyl)(2-pyridyl)]piperazinyl}-benzene] | 100%
CC1(C)Cc2cccc(OCCCCOc3cc(OCC=C(Cl)Cl)cc(Cl)c3Cl)c2O1 [Compound 2, 7-{4-[5-(3,3-dichloroprop-2-enyloxy)-2,3-dichlorophenoxy]butoxy}-2,2-dimethyl-2,3-dihydro-benzo[b]furan] | 100%
